Values after ≈ are worked out from the molar mass of the structure shown.
Columns and labels:
Assay type in all cases: cell-based
S. aureus MP-12 = assay: Broth dilution MIC determination (CLSI), S. aureus MP-12; details: Staphylococcus aureus, MP12; strain MP-12, broth dilution
E. coli MP-4 = assay: Broth dilution MIC determination (CLSI), E. coli MP-4; details: Escherichia coli, MP4; strain MP-4, broth dilution; read-out: MIC E. coli MP-4
K. pneumoniae MP-546 = assay: Broth dilution MIC determination (CLSI), K. pneumoniae MP-546; details: Klebsiella pneumoniae, MP546; strain MP-546, broth dilution
P. aeruginosa MP-3 = assay: Broth dilution MIC determination (CLSI), P. aeruginosa MP-3; details: Pseudomonas aeruginosa, MP3; strain MP-3, broth dilution
A. baumannii MP-15 = assay: Broth dilution MIC determination (CLSI), A. baumannii MP-15; details: Acinetobacter baumannii, MP15; strain MP-15, broth dilution; read-out: MIC A. baumanii MP-15

| MIC (S. aureus MP-12) [µg/mL] | MIC (E. coli MP-4) [µg/mL] | MIC (K. pneumoniae MP-546) [µg/mL] | MIC (P. aeruginosa MP-3) [µg/mL] | MIC (A. baumannii MP-15) [µg/mL] | Compound |
| --- | --- | --- | --- | --- | --- |
| > 32 | > 32 | > 32 | > 32 | > 32 | CCC[N+]1(C)CC=C([C@H]2[C@@H](C)OC(=O)C(C)(C)C(=O)[C@H](C)[C@@H](O[C@@H]3O[C@H](C)C[C@H](N(C)C)[C@H]3O)[C@](C)(OC)C[C@@H](C)CN2C)CC1 (stereo partly drawn) [Compound 4, 4-((2R,3S,6R,8R,9R,10R)-9-(((2S,3R,4S,6R)-4-(dimethylamino)-3-hydroxy-6-methyltetrahydro-2H-pyran-2-yl)oxy)-8-methoxy-2,4,6,8,10,12,12-heptamethyl-11,13-dioxo-1-oxa-4-azacyclotridecan-3-yl)-1-methyl-1-propyl-1,2,3,6-tetrahydropyridin-1-ium] |
| > 32 | 4 to 32 (≈ 6.69 to 53.5 µM) | > 32 | > 32 | > 32 | CO[C@]1(C)C[C@@H](C)CN(C)[C@H](C2CCNCC2)[C@H](C)OC(=O)C(C)(C)C(=O)[C@H](C)[C@H]1O[C@@H]1O[C@H](C)C[C@H](N(C)C)[C@H]1O [Compound 47, (2S,3R,6R,8R,9R,10R)-9-(((2S,3R,4S,6R)-4-(dimethylamino)-3-hydroxy-6-methyltetrahydro-2H-pyran-2-yl)oxy)-8-methoxy-2,4,6,8,10,12,12-heptamethyl-3-(piperidin-4-yl)-1-oxa-4-azacyclotridecane-11,13-dione] |
| 4 to 32 (≈ 6.27 to 50.2 µM) | 4 to 32 (≈ 6.27 to 50.2 µM) | < 4 | > 32 | 4 to 32 (≈ 6.27 to 50.2 µM) | CO[C@]1(C)C[C@@H](C)CN(C)[C@H](C2CN(C3CCCCC3)C2)COC(=O)C(C)(C)C(=O)[C@H](C)[C@H]1O[C@@H]1O[C@H](C)C[C@H](N(C)C)[C@H]1O [Compound 73, (3R,6R,8R,9R,10R)-3-(1-cyclohexylazetidin-3-yl)-9-(((2S,3R,4S,6R)-4-(dimethylamino)-3-hydroxy-6-methyltetrahydro-2H-pyran-2-yl)oxy)-8-methoxy-4,6,8,10,12,12-hexamethyl-1-oxa-4-azacyclotridecane-11,13-dione] |
| 4 to 32 (≈ 6.69 to 53.5 µM) | < 4 | < 4 | > 32 | > 32 | CO[C@]1(C)C[C@@H](C)CN(C)[C@H](C2CCN(C)CC2)COC(=O)C(C)(C)C(=O)[C@H](C)[C@H]1O[C@@H]1O[C@H](C)C[C@H](N(C)C)[C@H]1O [Compound 43, (3R,6R,8R,9R,10R)-9-(((2S,3R,4S,6R)-4-(dimethylamino)-3-hydroxy-6-methyltetrahydro-2H-pyran-2-yl)oxy)-8-methoxy-4,6,8,10,12,12-hexamethyl-3-(1-methylpiperidin-4-yl)-1-oxa-4-azacyclotridecane-11,13-dione] |
| > 32 | 4 to 32 (≈ 6.11 to 48.9 µM) | 4 to 32 (≈ 6.11 to 48.9 µM) | > 32 | > 32 | CO[C@]1(C)C[C@@H](C)CN(C)[C@H](C2CN(CC(=O)NC(C)C)C2)COC(=O)C(C)(C)C(=O)[C@H](C)[C@H]1O[C@@H]1O[C@H](C)C[C@H](N(C)C)[C@H]1O [Compound 36, 2-(3-((3R,6R,8R,9R,10R)-9-(((2S,3R,4S,6R)-4-(dimethylamino)-3-hydroxy-6-methyltetrahydro-2H-pyran-2-yl)oxy)-8-methoxy-4,6,8,10,12,12-hexamethyl-11,13-dioxo-1-oxa-4-azacyclotridecan-3-yl)azetidin-1-yl)-N-isopropylacetamide] |
| > 32 | 4 to 32 (≈ 5.76 to 46 µM) | 4 to 32 (≈ 5.76 to 46 µM) | > 32 | > 32 | CO[C@]1(C)C[C@@H](C)CN(C)[C@H](C2CCN(C(=O)CN3CCCC3)CC2)COC(=O)C(C)(C)C(=O)[C@H](C)[C@H]1O[C@@H]1O[C@H](C)C[C@H](N(C)C)[C@H]1O [Compound 9, (3R,6R,8R,9R,10R)-9-(((2S,3R,4S,6R)-4-(dimethylamino)-3-hydroxy-6-methyltetrahydro-2H-pyran-2-yl)oxy)-8-methoxy-4,6,8,10,12,12-hexamethyl-3-(1-(2-(pyrrolidin-1-yl)acetyl)piperidin-4-yl)-1-oxa-4-azacyclotridecane-11,13-dione] |
| > 32 | 4 to 32 (≈ 6.25 to 50 µM) | 4 to 32 (≈ 6.25 to 50 µM) | > 32 | > 32 | CO[C@]1(C)C[C@@H](C)CN(C)[C@H](C2CCN(C(C)C)CC2)[C@H](C)OC(=O)C(C)(C)C(=O)[C@H](C)[C@H]1O[C@@H]1O[C@H](C)C[C@H](N(C)C)[C@H]1O [Compound 147, (2S,3R,6R,8R,9R,10R)-9-(((2S,3R,4S,6R)-4-(dimethylamino)-3-hydroxy-6-methyltetrahydro-2H-pyran-2-yl)oxy)-3-(1-isopropylpiperidin-4-yl)-8-methoxy-2,4,6,8,10,12,12-heptamethyl-1-oxa-4-azacyclotridecane-11,13-dione] |
| > 32 | > 32 | > 32 | > 32 | > 32 | CO[C@]1(C)C[C@@H](C)CN(CC(C)C)[C@H](C2CN(CC(C)C)C2)COC(=O)C(C)(C)C(=O)[C@H](C)[C@H]1O[C@@H]1O[C@H](C)C[C@H](N(C)C)[C@H]1O [Compound 21, (3R,6R,8R,9R,10R)-9-(((2S,3R,4S,6R)-4-(dimethylamino)-3-hydroxy-6-methyltetrahydro-2H-pyran-2-yl)oxy)-4-isobutyl-3-(1-isobutylazetidin-3-yl)-8-methoxy-6,8,10,12,12-pentamethyl-1-oxa-4-azacyclotridecane-11,13-dione] |
| > 32 | 4 to 32 (≈ 6.54 to 52.3 µM) | > 32 | > 32 | > 32 | CN[C@H]1CC[C@H]([C@H]2COC(=O)C(C)(C)C(=O)[C@H](C)[C@@H](O[C@@H]3O[C@H](C)C[C@H](N(C)C)[C@H]3O)[C@](C)(OC)C[C@@H](C)CN2C)CC1 [Compound 26, (3S,6R,8R,9R,10R)-9-(((2S,3R,4S,6R)-4-(dimethylamino)-3-hydroxy-6-methyltetrahydro-2H-pyran-2-yl)oxy)-8-methoxy-4,6,8,10,12,12-hexamethyl-3-((1r,4S)-4-(methylamino)cyclohexyl)-1-oxa-4-azacyclotridecane-11,13-dione] |

| Compound | MIC (S. aureus MP-12) [µg/mL] | MIC (E. coli MP-4) [µg/mL] | MIC (K. pneumoniae MP-546) [µg/mL] | MIC (P. aeruginosa MP-3) [µg/mL] | MIC (A. baumannii MP-15) [µg/mL] |
| --- | --- | --- | --- | --- | --- |
| CO[C@]1(C)C[C@@H](C)CN(C)[C@H](C2CC3CCC(C2)N3CC(C)C)COC(=O)C(C)(C)C(=O)[C@H](C)[C@H]1O[C@@H]1O[C@H](C)C[C@H](N(C)C)[C@H]1O (stereo partly drawn) [Compound 87, (3R,6R,8R,9R,10R)-9-(((2S,3R,4S,6R)-4-(dimethylamino)-3-hydroxy-6-methyltetrahydro-2H-pyran-2-yl)oxy)-3-(8-isobutyl-8-azabicyclo[3.2.1]octan-3-yl)-8-methoxy-4,6,8,10,12,12-hexamethyl-1-oxa-4-azacyclotridecane-11,13-dione] | < 4 | < 4 | 4 to 32 (≈ 6.01 to 48.1 µM) | > 32 | > 32 |
| CO[C@]1(C)C[C@@H](C)CN(C)[C@H](C2CC3CCC(C2)N3C(=O)CN(C)C)COC(=O)C(C)(C)C(=O)[C@H](C)[C@H]1O[C@@H]1O[C@H](C)C[C@H](N(C)C)[C@H]1O (stereo partly drawn) [Compound 6, (3R,6R,8R,9R,10R)-9-(((2S,3R,4S,6R)-4-(dimethylamino)-3-hydroxy-6-methyltetrahydro-2H-pyran-2-yl)oxy)-3-(8-(dimethylglycyl)-8-azabicyclo[3.2.1]octan-3-yl)-8-methoxy-4,6,8,10,12,12-hexamethyl-1-oxa-4-azacyclotridecane-11,13-dione] | > 32 | 4 to 32 (≈ 5.76 to 46 µM) | 4 to 32 (≈ 5.76 to 46 µM) | > 32 | > 32 |

From patent US20220177508A1, “C10-Cyclic Substituted 13-Membered Macrolides and Uses Thereof” (Zikani Therapeutics, Inc., priority 2018, published 2022)
